In patent publication US5506256A, “Proline derivatives possessing prolyl endopeptidase-inhibitory activity” (Yoshitomi Pharmaceutical Industries, Ltd., priority 1990, dated 1996):
Like-named read-outs stand apart in the source and are kept apart here.

Assays:
[1] = test system: leucine aminopeptidase; assay: Determination of leucine aminopeptidase-inhibitory activity; assay type: biochemical, swine; set-up: unit not given here
Procedure: (§1) The methods for the measurement of inhibitory activities against various proteases and the method for calculating the inhibition rate are as follows.
Determination of leucine aminopeptidase-inhibitory activity
Similarly, by following the procedure mentioned above, but employing a 50 mM Tris-HCl buffer (pH 8.0) as a buffer for measurement, a […] solution of leucine aminopeptidase (derived from swine kidney, Sigma) in the same buffer as an enzyme solution and a 200 μM solution of 7-leucyl-4-methyl-coumarinamide (Peptide Institute, Inc.) in the same buffer as a substrate solution, each fluorescence (d1, d2 and d3) was determined, respectively.
(§2) Using the fluorescence x1, x2 and x3 measured in the abovementioned manner, the inhibitory rate against various proteases was calculated by the following formula where x stands for b, c, d, e or f: [formula]

[2] = biological target: T1, prolyl endopeptidase (Rattus norvegicus, UniProt O70196); assay: Prolyl endopeptidase-inhibitory activity; assay type: biochemical; details: for inhibition at 1 µM / inhibition at 0.1 µM: read-out: inhibition rate, prolyl endopeptidase
T1 construct: prolyl endopeptidase extracted from rat brain; from tissue; host or cells: rat brain
Procedure: Prolyl endopeptidase-inhibitory activity
A mixture of a 0.1M potassium sodium phosphate buffer (pH 7.0) (2675 μl), a solution of the compounds of the present invention in a 0.1M potassium sodium phosphate buffer (pH 7.0) (100 μl) and a solution of prolyl endopeptidase extracted from rat brain in a 25 mM sodium phosphate buffer (100 μl) [123 unit/1, pH 6.8, containing 1 mM dithiothreitol and 0.5 mM EDTA, prepared by the method described in J. Neurochem., 35, 527 (1980)]was preincubated at 30° C. for 30 minutes. Thereto was added a 0.2 mM solution of 7-(N-succinyl-glycyl-prolyl)-4-methylcoumarinamide (Peptide Institute, INC.) in a 0.1M potassium sodium phosphate buffer (pH 7.0) (125 μl), and the mixture was incubated at 30° C. for 1 hour. The reaction mixture was immersed in ice (0° C.) to terminate the reaction, and the fluorescence (a1) was determined ten minutes later (excitation at 370 nm and emission at 440 nm). Concurrently, there were conducted the experiment wherein, in the above system, the prolyl endopeptidase solution was substituted for a 25 mM sodium phosphate buffer (pH 6.8, containing 1 mM dithiothreitol and 0.5 mM EDTA) and the experiment wherein the solution of the compounds of the present invention was substituted for a 0.1M potassium sodium phosphate buffer (pH 7.0). Each fluorescence (a2 and a3) was determined respectively [See Tanpakushitsu Kakusan Koso, 29, 127 (1984)]. The prolyl endopeptidase-inhibition rate was calculated by the following formula, and IC50, a concentration of a compound producing 50% inhibition, was estimated by semilogarithmic graph paper. [formula] […]

[3] = biological target: T2, chymotrypsin (Bos taurus, UniProt P00766); assay: Determination of chymotrypsin-inhibitory activity; assay type: biochemical, bovine; details: read-out: inhibition rate, chymotrypsin
T2 construct: purchased Sigma; host or cells: bovine pancreas
Procedure: as §1
Determination of chymotrypsin-inhibitory activity
Similarly, by following the procedure mentioned above, but employing a 50 mM Tris-HCl buffer (pH 8.0) as a buffer for measurement, a 0.2 μM solution of chymotrypsin (derived from bovine pancreas, Sigma) in the same buffer as an enzyme solution and a […] solution of 7-(N-succinyl-leucyl-leucyl-valyl-tyrosyl)-4-methylcoumarinamide (Peptide Institute, Inc.) in the same buffer as a substrate solution, each fluorescence (c1, c2 and c3) was determined, respectively.
as §2

[4] = biological target: T3, cathepsin B (Bos taurus, UniProt P07688); assay: Determination of cathepsin B-inhibitory activity; assay type: biochemical, bovine; details: read-out: inhibition rate, cathepsin B
T3 construct: purchased Sigma; host or cells: bovine spleen
Procedure: as §1
Determination of cathepsin B-inhibitory activity
Similarly, by following the procedure mentioned above, but employing a 100 mM sodium phosphate buffer (pH 6.0; containing 1.33 mM EDTA Na2) as a buffer for measurement, a 0.02 μM solution of cathepsin B (derived from bovine spleen, Sigma) in the same buffer as an enzyme solution and a 200 μM solution of 7-(N-benzyloxycarbonyl-phenylaranyl-arginyl)-4-methylcoumarinamide (Peptide Institute, Inc.) in the same buffer as a substrate solution, each fluorescence (f1, f2 and f3) was determined, respectively.
as §2

[5] = biological target: T4, trypsin (Bos taurus, UniProt P00760); assay: Determination of trypsin-inhibitory activity; assay type: biochemical, bovine; details: read-out: inhibition rate, trypsin
T4 construct: purchased Sigma; host or cells: bovine pancreas
T4 sequence (P00760 24-246): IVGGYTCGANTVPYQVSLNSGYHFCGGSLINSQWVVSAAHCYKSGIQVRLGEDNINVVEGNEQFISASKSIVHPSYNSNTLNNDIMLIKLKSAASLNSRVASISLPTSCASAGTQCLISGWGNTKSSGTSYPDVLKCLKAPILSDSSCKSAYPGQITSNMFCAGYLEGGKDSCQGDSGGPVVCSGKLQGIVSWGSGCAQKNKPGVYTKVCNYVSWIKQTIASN
Procedure: as §1
Determination of trypsin-inhibitory activity
In the present invention, a 50 mM Tris-HCl buffer (pH 8.0) was employed as a buffer for measurement.
To a mixture of the above-mentioned buffer (850 μl), a solution of the compounds of the present invention in the same buffer (50 μl) and a 0.02 μM solution of trypsin (derived from bovine pancreas, Sigma) in the same buffer (50 μl) was added a 200 μM solution of 7-(prolyl-phenylaranyl-arginyl)-4-methylcoumarinamide (Peptide Institute, Inc.) in the same buffer (50 μl),and the mixture was incubated at 30° C. for 1 hour. The reaction mixture was immersed in ice (0° C.) to terminate the reaction, and the fluorescence (b1) was determined 1 hour later (excitation at 370 nm and emission at 440 nm). Concurrently, there were conducted the experiment wherein, in the system above, the trypsin solution was substituted for a buffer alone, and the experiment wherein the solution of the compounds of the present invention was substituted for a buffer above. Each fluorescence (b2 and b3) was determined respectively.
as §2

[6] = biological target: T5, elastase (Sus scrofa, UniProt P00772); assay: Determination of elastase-inhibitory activity; assay type: biochemical, swine; details: read-out: inhibition rate, elastase
T5 construct: purchased Sigma; host or cells: swine pancreas
Procedure: as §1
Determination of elastase-inhibitory activity
Similarly, by following the procedure mentioned above, but employing a 1 mM Tris-HCl buffer (pH 8.5) as a buffer for measurement, a 0.2 μM solution of elastase (derived from swine pancreas, Sigma) in the same buffer as an enzyme solution and a 200 μM solution of 7-(N-succinyl-aranyl-prolyl-aranyl)-4-methylcoumarinamide (Peptide Institute, Inc.) in the same buffer as a substrate solution, each fluorescence (e1, e2 and e3) was determined, respectively.
as §2

[7] = prolyl endopeptidase extracted from rat brain, pH 7.0, 30° C., read-out: IC50

T1 sequence (O70196 whole entry): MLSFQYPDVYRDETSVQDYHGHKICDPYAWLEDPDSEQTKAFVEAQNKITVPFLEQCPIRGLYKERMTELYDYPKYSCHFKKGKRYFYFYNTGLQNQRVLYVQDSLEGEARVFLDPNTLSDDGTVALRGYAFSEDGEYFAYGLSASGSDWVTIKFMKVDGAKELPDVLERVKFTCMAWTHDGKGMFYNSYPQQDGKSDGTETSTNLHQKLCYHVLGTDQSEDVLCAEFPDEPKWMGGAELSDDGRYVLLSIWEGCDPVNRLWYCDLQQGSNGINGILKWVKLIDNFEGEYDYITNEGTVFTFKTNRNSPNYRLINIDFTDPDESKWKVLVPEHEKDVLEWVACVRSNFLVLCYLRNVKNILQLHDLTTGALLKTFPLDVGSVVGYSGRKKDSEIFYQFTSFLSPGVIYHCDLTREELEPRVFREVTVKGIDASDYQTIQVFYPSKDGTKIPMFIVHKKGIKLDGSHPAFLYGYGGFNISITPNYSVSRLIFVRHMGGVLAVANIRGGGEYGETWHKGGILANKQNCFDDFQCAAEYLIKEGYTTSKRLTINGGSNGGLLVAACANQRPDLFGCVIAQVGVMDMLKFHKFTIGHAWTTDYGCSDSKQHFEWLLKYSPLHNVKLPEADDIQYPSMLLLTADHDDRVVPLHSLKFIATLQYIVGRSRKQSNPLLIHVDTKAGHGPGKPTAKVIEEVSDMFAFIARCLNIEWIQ
T5 sequence (P00772 27-266): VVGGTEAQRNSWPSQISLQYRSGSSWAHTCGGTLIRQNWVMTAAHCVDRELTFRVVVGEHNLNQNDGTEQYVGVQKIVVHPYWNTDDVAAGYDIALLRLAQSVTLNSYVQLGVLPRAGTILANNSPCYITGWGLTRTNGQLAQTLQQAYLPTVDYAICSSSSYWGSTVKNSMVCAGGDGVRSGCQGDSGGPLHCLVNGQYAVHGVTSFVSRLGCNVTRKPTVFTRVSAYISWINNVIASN

With `COc1ccc(OCC(=O)[C@@H]2CCCN2C(=O)[C@@H]2CCCN2C(=O)NCc2ccccc2)cc1` [Compound 22, (2S)-1-(N-Benzylaminocarbonyl-L-prolyl)-2-(4-methoxyphenoxyacetyl)pyrrolidine] the “inhibition rate, leucine aminopeptidase” value ([1]; 1 μM) was 0, the inhibition at 1 µM [2] was 97% and the IC50 [2, 7] was 25 nM. It also gave an inhibition at 1 µM [3] of 0%, an inhibition at 1 µM [4] of 0% and an inhibition at 1 µM [5] of 0%. It also gave an inhibition at 1 µM [6] of 0%.

With `COc1ccc(OCC(=O)[C@@H]2CCCN2C(=O)[C@@H]2CCCN2C(=O)CSc2ccccc2)cc1` [Compound 49, (25)-2-(4-Methoxyphenoxyacetyl)-1-{N-[(phenylthio)acetyl]-L-prolyl}pyrrolidine] the “inhibition rate, leucine aminopeptidase” value ([1]; 1 μM) was 0, the inhibition at 1 µM [2] was 98% and the IC50 [2, 7] was 20 nM. The inhibition at 1 µM [3] was 0%, the inhibition at 1 µM [4] was 0% and the inhibition at 1 µM [5] was 0%. The inhibition at 1 µM [6] was 0%.

`CCCCCCCC(=O)N1CCC[C@H]1C(=O)N1CCC[C@H]1C(=O)COc1ccccc1` [Compound 31, (2S)-1-(N-Octanoyl-L-prolyl)-2-(phenoxyacetyl)pyrrolidine] was tested, and the “inhibition rate, leucine aminopeptidase” value ([1]; 0.1 μM) was 0, the inhibition at 0.1 µM [2] was 97% and the IC50 [2, 7] was 4.5 nM. It also gave an inhibition at 0.1 µM [3] of 0%, an inhibition at 0.1 µM [4] of 0% and an inhibition at 0.1 µM [5] of 0%. For the same molecule, the inhibition at 0.1 µM [6] was 0%.

For `O=C(C[S+]([O-])c1ccccc1)[C@@H]1CCCN1C(=O)[C@@H]1CCCN1C(=O)CCCc1ccccc1` (stereo partly drawn) [Compound 5, (2S)-1-[N-(4-Phenylbutyryl)-L-prolyl]-2-[(phenylsulfinyl)-acetyl]pyrrolidine], the “inhibition rate, leucine aminopeptidase” value ([1]; 0.1 μM) was 0, the inhibition at 0.1 µM [2] was 98% and the IC50 [2, 7] was 0.3 nM. The inhibition at 0.1 µM [3] was 0%, the inhibition at 0.1 µM [4] was 0% and the inhibition at 0.1 µM [5] was 0%. It also gave an inhibition at 0.1 µM [6] of 0%.

For `O=C(COc1ccccc1)[C@@H]1CCCN1C(=O)[C@@H]1CCCN1C(=O)NCc1ccc(Cl)cc1` [Compound 30, (2S)-1-[N-(4-Chlorobenzylaminocarbonyl)-L-prolyl]-2-(phenoxyacetyl)pyrrolidine], the “inhibition rate, leucine aminopeptidase” value ([1]; 0.1 μM) was 0, the inhibition at 0.1 µM [2] was 99% and the IC50 [2, 7] was 0.6 nM. It also gave an inhibition at 0.1 µM [3] of 0%, an inhibition at 0.1 µM [4] of 0% and an inhibition at 0.1 µM [5] of 0%. It also gave an inhibition at 0.1 µM [6] of 0%.

For `O=C(C[S@@+]([O-])c1ccccc1)[C@@H]1CCCN1C(=O)[C@@H]1CCCN1C(=O)OCc1ccccc1` [Compound 10, (2S)-1-(N-Benzyloxycarbonyl-L-prolyl)-2-{[(R)-phenylsulfinyl]acetyl}pyrrolidine], the “inhibition rate, leucine aminopeptidase” value ([1]; 0.1 μM) was 0, the inhibition at 0.1 µM [2] was 97% and the IC50 [2, 7] was 80 nM. For the same molecule, the inhibition at 0.1 µM [3] was 0%, the inhibition at 0.1 µM [4] was 0% and the inhibition at 0.1 µM [5] was 0%. For the same molecule, the inhibition at 0.1 µM [6] was 0%.

For `COc1ccc([S@@+]([O-])CC(=O)[C@@H]2CCCN2C(=O)[C@@H]2CCCN2C(=O)OCc2ccccc2)cc1` [Compound 11, (2S)-1-(N-Benzyloxycarbonyl-L-prolyl)-2-{[(S)-4-methoxy-phenylsulfinyl]acetyl}pyrrolidine], the “inhibition rate, leucine aminopeptidase” value ([1]; 0.1 μM) was 0, the inhibition at 0.1 µM [2] was 90% and the IC50 [2, 7] was 1.5 nM. The inhibition at 0.1 µM [3] was 0%, the inhibition at 0.1 µM [4] was 0% and the inhibition at 0.1 µM [5] was 0%. The inhibition at 0.1 µM [6] was 0%.

In the case of `O=C(COc1ccc(O)cc1)[C@@H]1CCCN1C(=O)[C@@H]1CCCN1C(=O)CCc1ccccc1` [Compound 27, (2S)-2-(4-Hydroxyphenoxyacetyl)-l-[N-(3-phenylpropionyl)-L-prolyl]pyrrolidine], the “inhibition rate, leucine aminopeptidase” value ([1]; 0.1 μM) is reported as 0, the inhibition at 0.1 µM [2] is reported as 96% and the IC50 [2, 7] is reported as 2.5 nM. For the same molecule, the inhibition at 0.1 µM [3] was 0%, the inhibition at 0.1 µM [4] was 0% and the inhibition at 0.1 µM [5] was 0%. The inhibition at 0.1 µM [6] was 0%.

With `O=C(COc1ccccc1)[C@@H]1CCCN1C(=O)[C@@H]1CCCN1C(=O)CCc1ccccc1` [Compound 19, (2S)-2-(Phenoxyacetyl)-1-[N-(3-phenylpropionyl)-L-prolyl]-pyrrolidine] the “inhibition rate, leucine aminopeptidase” value ([1]; 1 μM) was 0, the inhibition at 1 µM [2] was 98% and the IC50 [2, 7] was 15 nM. It also gave an inhibition at 1 µM [3] of 0%, an inhibition at 1 µM [4] of 0% and an inhibition at 1 µM [5] of 0%. The inhibition at 1 µM [6] was 0%.

For `O=C(COc1ccccc1)[C@@H]1CCCN1C(=O)[C@@H]1CCCN1C(=O)NCc1ccccc1` [Compound 21, (2S)-1-(N-Benzylaminocarbonyl-L-prolyl)-2-(phenoxyacetyl)-pyrrolidine], the “inhibition rate, leucine aminopeptidase” value ([1]; 1 μM) was 0, the inhibition at 1 µM [2] was 99% and the IC50 [2, 7] was 15 nM. It also gave an inhibition at 1 µM [3] of 0%, an inhibition at 1 µM [4] of 0% and an inhibition at 1 µM [5] of 0%. For the same molecule, the inhibition at 1 µM [6] was 0%.

For `O=C(COc1ccc(Cl)cc1)[C@@H]1CCCN1C(=O)[C@@H]1CCCN1C(=O)NCc1ccc(Cl)cc1` [Compound 28, (2S)-1-[N-(4-Chlorobenzylaminocarbonyl)-L-prolyl]-2-(4-chlorophenoxyacetyl)pyrrolidine], the “inhibition rate, leucine aminopeptidase” value ([1]; 0.1 μM) was 0, the inhibition at 0.1 µM [2] was 97% and the IC50 [2, 7] was 15 nM. For the same molecule, the inhibition at 0.1 µM [3] was 0%, the inhibition at 0.1 µM [4] was 0% and the inhibition at 0.1 µM [5] was 0%. It also gave an inhibition at 0.1 µM [6] of 0%.

With `O=C(COc1ccc2c(c1)OCO2)[C@@H]1CCCN1C(=O)[C@@H]1CCCN1C(=O)NCc1ccccc1` [Compound 33, (2S)-1-[N-(Benzylaminocarbonyl)-L-prolyl]-2-{[(3,4-methylenedioxy)phenoxy]acetyl} pyrrolidine] the IC50 [2] was 1 nM, the inhibition at 0.1 µM [2] was 96% and the inhibition at 0.1 µM [3] was 0%. For the same molecule, the inhibition at 0.1 µM [4] was 0%, the inhibition at 0.1 µM [5] was 0% and the inhibition at 0.1 µM [6] was 0%.
